In brackets after ≈: the same amount, converted by molar mass. Like-named read-outs stand apart in the source and are kept apart here. Numbered stars: 1 amine (or outer) side, 2 acyl side, 3 side chain; on linkers, the order of the positions; unused ones are H or OH. Bridge positions count the residues as written; N and C are the ends. Square brackets hold non-standard residues; d marks the D form. Peptide text beside a SMILES is read from it. * marks the point of attachment. Lys(Me,(CH2)4NMe(CH2)5CO) = CN(CCCCCC(=O)[*:3])CCCCN(C)CCCC[C@H](N[*:1])C(=O)[*:2]; Lys(Me,(CH2)4NMe(CH2)4CO) = CN(CCCCC(=O)[*:3])CCCCN(C)CCCC[C@H](N[*:1])C(=O)[*:2]; X3 = Cc1cccc2c(C[C@H](N[*:1])C(=O)[*:2])cn(C)c12; Trp(7-Me) = Cc1cccc2c(C[C@H](N)C(=O)O)c[nH]c12; Trp(1-Me) = Cn1cc(C[C@H](N)C(=O)O)c2ccccc21; NH(2-(3-pyridyl)ethyl) = c1cncc(CCN*)c1; αMeLys(Me2) = CN(C)CCCC[C@](C)(N)C(=O)O; 2Nal = N[C@@H](Cc1ccc2ccccc2c1)C(=O)O; 3Pal = N[C@@H](Cc1cccnc1)C(=O)O; Aun = NCCCCCCCCCCC(=O)O; Thp = NC1(C(=O)O)CCOCC1; Me2NCH2CH2 = CN(C)CC*; Aib = CC(C)(N)C(=O)O; Sar = CNCC(=O)O
Assays:
[1] = Solubility of peptide compounds in buffer formulations (Table 5); assay type: physicochemical; settings: target 1 mg/ml
Outline: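 Peptide solids, dried from DMSO stock, were taken up at 1 mg/mL in 50 mM HCl pH 1.2, or 50 mM phosphate pH 6.5 or pH 7.4. After 2 h gentle agitation and filtration (0.45 μm), solubility was determined by UHPLC-UV peak area against a DMSO standard of known concentration.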

[2] = Chemical stability (relative purity loss) of peptide compounds in buffer formulations (Table 6); assay type: physicochemical; settings: 2° C. and 37° C.
Method: Purity of a peptide batch was determined through UHPLC/MS method A prior to chemical stability measurement.
For stability assessment, the target concentration was 0.5 mg pure compound/ml. Therefore, solutions from solid samples were prepared in a buffer system at a concentration of 0.5 mg/mL compound. The solid samples were obtained by drying down aliquots of a freshly prepared acetonitrile stock solution using a THERMO SPEEDVAC vacuum centrifuge. The dry down time was 3 hours.
The following buffer systems were applied: • Solubility buffer system A): 50 mM HCl pH 1.2+Acetonitrile (3:1). • Solubility buffer system B): 50 mM phosphate buffer pH 6.5+Acetonitrile (3:1). • Solubility buffer system C): 50 mM phosphate buffer pH 7.4+Acetonitrile (3:1). • Prepared solutions were stored for 24 hours at 2° C. and 37° C.
After this time course, the samples were centrifuged for 15 min at 2500 RCF to create a 1:5 dilution of the supernatant. Then 2 μl of the dilution were analyzed with UHPLC-UV applying method A.
The chemical stability was rated through the relative loss of purity calculated by the equation: […]

[3] = Protease stability in simulated intestinal fluids (FaSSIF) (Table 7); assay type: in vitro ADME; settings: fassif with pancreatin, 37° C.; for remaining at 1 h, 1 µM: 60 min, read-out: Remaining percentage of peptide compound, FaSSIF 60 (min); for remaining at 2 h, 1 µM: 120 min, read-out: Remaining percentage of peptide compound, FaSSIF 120 (min); for remaining at 4 h, 1 µM: 240 min, read-out: Remaining percentage of peptide compound, FaSSIF 240 (min)
Method: (§1) Studies were carried out in simulated intestinal fluid (SIF) and simulated gastric fluid (SGF) to evaluate gastric stability of the peptide compounds disclosed herein.
Similarly, the term “Pancreatin-SIF” refers to a solution of simulated intestinal fluid containing pancreatin whereas “SIF-media” refers to a solution of simulated intestinal fluid without pancreatin. Pancreatin-SIF was prepared by dissolving 1 mg Pancreatin (MP Biomedicals) in 10 mL SIF media concentrate (PROSENSE).
(§2) Peptide compounds were first dissolved at 1 mM stock concentration in 0.01 HCl (+/−10% of DMSO) and were than diluted further with water to a stock concentration of 20 μM. Final peptide concentration in the incubation was 1 μM.
(§3) To 76 μL of the Pepsin-SGF buffer, 4 μL of the 20 μM peptide stock solution was added and incubated at 37° C. At each timepoint (0, 60, 120 and 240 minutes) the reaction was quenched with addition of 80 μL Ethanol (0.1% HCOOH). The samples were centrifuged for 20 minutes and an aliquot of the supernatant 100 μL were transferred to a LoBind-MTP plate and analyzed by LCMS/MS. The peak area response was calculated at each time point for each test compound. As internal reference, the peak area response of the same test compound at T0 was calculated. The percentage remaining at each timepoint was calculated based on the peak area response ratio of the test compound at T0. Time 0 was set to 100%, and all later timepoints were calculated relative to time 0.

[4] = Protease stability in simulated gastric fluids (FaSSGF) (Table 7); assay type: in vitro ADME; settings: fassgf with pepsin, 60 min, 37° C., read-out: Remaining percentage of peptide compound, FaSSGF 60 (min)
Method: as §1
For clarification, the term “Pepsin-SGF” refers to a solution of simulated gastric fluid containing pepsin whereas “SGF media” refers to a solution of simulated gastric fluid without pepsin. Pepsin-SGF was prepared by dissolving 320 mg Pepsin (Merck Millipore) in 100 mL SGF media concentrate (PROSENSE).
as §2
as §3, with “(0,1%” for “(0.1%”
as §3

[5] = system: IL-23 induced STAT3 signaling (IL-23 receptor) in HEK-Blue IL-23 cells; test: Inhibition of IL-23 induced STAT3 signaling in HEK-Blue IL-23 cells, SEAP reporter (Table 9); assay type: cell-based; settings: human IL23 0.25 ng/ml, overnight, read-out: Inhibition of IL-23 induced pSTAT3 (IC50 nM)
Outline: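 HEK-Blue IL-23 reporter cells (10,000/well) pre-incubated 60 min at 37 °C with serially diluted peptides, then stimulated overnight with human IL-23 at 0.25 ng/ml final. SEAP in supernatant read by QUANTI-Blue, 45 min room temperature, OD 620–655 nm; dose-response curve fitting.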

[6] = Buffer pH 1.1 (head; method: 50 mM HCl pH 1.2), 2 h agitation, read-out: Solubility, Buffer pH 1.1
[7] = aqueous buffer, 50 mM phosphate buffer pH 6.5, 2 h agitation, read-out: Solubility, Buffer pH 6.5
[8] = aqueous buffer, 50 mM phosphate buffer pH 7.4, 2 h agitation, read-out: Solubility, Buffer pH 7.4
[9] = 50 mM phosphate buffer pH 6.5 + acetonitrile (3:1), read-out: Chemical stability (relative purity loss), Buffer pH 6.5
[10] = 50 mM phosphate buffer pH 7.4 + acetonitrile (3:1), read-out: Chemical stability (relative purity loss), Buffer pH 7.4
[11] = 50 mm hcl + acetonitrile, Buffer pH 1.1 (head; method: 50 mM HCl pH 1.2 + acetonitrile 3:1), read-out: Chemical stability (relative purity loss), Buffer pH 1.1

| Compound | solubility at 2 h [1, 6] | solubility at 2 h [1, 7] | solubility at 2 h [1, 8] | degraded at 24 h [2, 9] | degraded at 24 h [2, 10] | degraded at 24 h [2, 11] | remaining at 1 h, 1 µM [3] | remaining at 2 h, 1 µM [3] | remaining at 4 h, 1 µM [3] | remaining at 1 h, 1 µM [4] | IC50 [5] |
| --- | --- | --- | --- | --- | --- | --- | --- | --- | --- | --- | --- |
| Cc1cccc2c(C[C@@H]3NC(=O)CCCCCCCCCCNC(=O)CC[C@@H](C(=O)N[C@@H](CC(N)=O)C(=O)N[C@@H](Cc4cccnc4)C(=O)N(C)CC(N)=O)NC(=O)[C@](C)(CCCCN(C)C)NC(=O)[C@H](Cc4ccc5ccccc5c4)NC(=O)[C@H](Cc4ccc(OCCN(C)C)cc4)NC(=O)C4(CCOCC4)NC(=O)[C@H](CCC(N)=O)NC3=O)c[nH]c12 [compound 20] ([Aun][Trp(7-Me)]Q[Thp]Y(Me2NCH2CH2)[2Nal][αMeLys(Me2)]EN[3Pal][Sar]-NH2; lactam N-8) | ≥ 850 µg/mL | < 10 µg/mL | < 10 µg/mL | 0% | 0.1% | 4.9% | 96% | 96% | 97% | 91% | 0.23 nM |
| Cc1cccc2c(C[C@@H]3NC(=O)CCCCCCCCCCNC(=O)CC[C@@H](C(=O)N[C@@H](CC(N)=O)C(=O)N[C@@H](Cc4cccnc4)C(=O)N(C)CC(N)=O)NC(=O)C(C)(C)NC(=O)[C@H](Cc4ccc5ccccc5c4)NC(=O)[C@H](Cc4ccc(OCCN(C)C)cc4)NC(=O)C(C)(C)NC(=O)[C@H](CCC(N)=O)NC3=O)c[nH]c12 [compound 35] ([Aun][Trp(7-Me)]Q[Aib]Y(Me2NCH2CH2)[2Nal][Aib]EN[3Pal][Sar]-NH2; lactam N-8) | ≥ 870 µg/mL | 80 µg/mL (≈ 50.8 µM) | 40 µg/mL (≈ 25.4 µM) | 0% | 0% | 7.4% | 89% | 88% | 87% | 86% | 0.6 nM |
| Cc1cccc2c(C[C@@H]3NC(=O)CCCCN(C)CCCCN(C)CCCC[C@@H](C(=O)NCC(=O)NCCc4cccnc4)NC(=O)C(C)(C)NC(=O)[C@H](Cc4ccc5ccccc5c4)NC(=O)[C@H](Cc4ccc(OCCN(C)C)cc4)NC(=O)C4(CCOCC4)NC(=O)[C@H](CC(C)C)NC3=O)cn(C)c12 [compound 49] ([X3]L[Thp]Y(Me2NCH2CH2)[2Nal][Aib][Lys(Me,(CH2)4NMe(CH2)4CO)]G-{NH(2-(3-pyridyl)ethyl)}; lactam N-7) | ≥ 900 µg/mL | 250 µg/mL (≈ 171 µM) | 40 µg/mL (≈ 27.4 µM) | 0% | 0% | 0% | 100% | 100% | 101% | 99% | 35.4 nM |

Continued, in another order:

| solubility at 2 h [1, 6] | solubility at 2 h [1, 7] | solubility at 2 h [1, 8] | degraded at 24 h [2, 9] | degraded at 24 h [2, 10] | degraded at 24 h [2, 11] | remaining at 1 h, 1 µM [3] | remaining at 2 h, 1 µM [3] | remaining at 4 h, 1 µM [3] | remaining at 1 h, 1 µM [4] | Compound | IC50 [5] |
| --- | --- | --- | --- | --- | --- | --- | --- | --- | --- | --- | --- |
| ≥ 1020 µg/mL | ≥ 1220 µg/mL | ≥ 1090 µg/mL | 0% | 0% | 6% | 93% | 91% | 90% | 100% | Cc1cccc2c(C[C@@H]3NC(=O)CCCCCN(C)CCCCN(C)CCCC[C@@H](C(=O)N[C@@H](CC(N)=O)C(=O)N[C@@H](Cc4cccnc4)C(=O)N(C)CC(N)=O)NC(=O)C(C)(C)NC(=O)[C@H](Cc4ccc5ccccc5c4)NC(=O)[C@H](Cc4ccc(OCCN(C)C)cc4)NC(=O)C4(CCOCC4)NC(=O)[C@H](CCC(N)=O)NC3=O)c[nH]c12 [compound 31] ([Trp(7-Me)]Q[Thp]Y(Me2NCH2CH2)[2Nal][Aib][Lys(Me,(CH2)4NMe(CH2)5CO)]N[3Pal][Sar]-NH2; lactam N-7) | 0.71 nM |
| ≥ 980 µg/mL | ≥ 1070 µg/mL | ≥ 1060 µg/mL | 0% | 0% | 5.7% | 97% | 93% | 92% | 100% | CN(C)CCOc1ccc(C[C@@H]2NC(=O)C3(CCOCC3)NC(=O)[C@H](CCC(N)=O)NC(=O)[C@H](Cc3cn(C)c4ccccc34)NC(=O)CCCCN(C)CCCCN(C)CCCC[C@@H](C(=O)N[C@@H](CO)C(=O)N[C@@H](Cc3cccnc3)C(=O)N(C)CC(N)=O)NC(=O)C(C)(C)NC(=O)[C@H](Cc3ccc4ccccc4c3)NC2=O)cc1 [compound 40] ([Trp(1-Me)]Q[Thp]Y(Me2NCH2CH2)[2Nal][Aib][Lys(Me,(CH2)4NMe(CH2)4CO)]S[3Pal][Sar]-NH2; lactam N-7) | 2.26 nM |
| ≥ 960 µg/mL | ≥ 1050 µg/mL | ≥ 890 µg/mL | 0% | 0% | 6% | 88% | 85% | 85% | 100% | Cc1cccc2c(C[C@@H]3NC(=O)CCCCN(C)CCCCN(C)CCCC[C@@H](C(=O)N[C@@H](CC(N)=O)C(=O)N[C@@H](Cc4cccnc4)C(=O)N(C)CC(N)=O)NC(=O)C(C)(C)NC(=O)[C@H](Cc4ccc5ccccc5c4)NC(=O)[C@H](Cc4ccc(OCCN(C)C)cc4)NC(=O)C4(CCOCC4)NC(=O)[C@H](CCC(N)=O)NC3=O)c[nH]c12 [compound 46] ([Trp(7-Me)]Q[Thp]Y(Me2NCH2CH2)[2Nal][Aib][Lys(Me,(CH2)4NMe(CH2)4CO)]N[3Pal][Sar]-NH2; lactam N-7) | 0.72 nM |

Source: US20260297129A1, “PEPTIDES AS SELECTIVE IL-23 RECEPTOR INHIBITORS” (SANOFI, priority 2023, published 2026)
